The values below come from ChEMBL document CHEMBL5576083, “Structure-Based Design and Synthesis of Covalent Inhibitors for Deubiquitinase and Acetyltransferase ChlaDUB1 of Chlamydia trachomatis” (J Med Chem, 2024).

Series [1] concerns Chlamydia trachomatis. Put plainly: Anti-chlamydial activity against Chlamydia trachomatis serovar L2 infected in human HEp-2 cells assessed as inhibition of chlamydial inclusion incubated for 24 hrs by Alexa488/DAPI staining based immunofluorescence assay. The series is classed as functional, organism-based. Particulars: serovar L2, HEp-2, 24 h.
Series [2] addresses T1, Ubiquitin carboxyl-terminal hydrolase 25 (Homo sapiens) (UniProt Q9UHP3).
T1 sequence (whole entry): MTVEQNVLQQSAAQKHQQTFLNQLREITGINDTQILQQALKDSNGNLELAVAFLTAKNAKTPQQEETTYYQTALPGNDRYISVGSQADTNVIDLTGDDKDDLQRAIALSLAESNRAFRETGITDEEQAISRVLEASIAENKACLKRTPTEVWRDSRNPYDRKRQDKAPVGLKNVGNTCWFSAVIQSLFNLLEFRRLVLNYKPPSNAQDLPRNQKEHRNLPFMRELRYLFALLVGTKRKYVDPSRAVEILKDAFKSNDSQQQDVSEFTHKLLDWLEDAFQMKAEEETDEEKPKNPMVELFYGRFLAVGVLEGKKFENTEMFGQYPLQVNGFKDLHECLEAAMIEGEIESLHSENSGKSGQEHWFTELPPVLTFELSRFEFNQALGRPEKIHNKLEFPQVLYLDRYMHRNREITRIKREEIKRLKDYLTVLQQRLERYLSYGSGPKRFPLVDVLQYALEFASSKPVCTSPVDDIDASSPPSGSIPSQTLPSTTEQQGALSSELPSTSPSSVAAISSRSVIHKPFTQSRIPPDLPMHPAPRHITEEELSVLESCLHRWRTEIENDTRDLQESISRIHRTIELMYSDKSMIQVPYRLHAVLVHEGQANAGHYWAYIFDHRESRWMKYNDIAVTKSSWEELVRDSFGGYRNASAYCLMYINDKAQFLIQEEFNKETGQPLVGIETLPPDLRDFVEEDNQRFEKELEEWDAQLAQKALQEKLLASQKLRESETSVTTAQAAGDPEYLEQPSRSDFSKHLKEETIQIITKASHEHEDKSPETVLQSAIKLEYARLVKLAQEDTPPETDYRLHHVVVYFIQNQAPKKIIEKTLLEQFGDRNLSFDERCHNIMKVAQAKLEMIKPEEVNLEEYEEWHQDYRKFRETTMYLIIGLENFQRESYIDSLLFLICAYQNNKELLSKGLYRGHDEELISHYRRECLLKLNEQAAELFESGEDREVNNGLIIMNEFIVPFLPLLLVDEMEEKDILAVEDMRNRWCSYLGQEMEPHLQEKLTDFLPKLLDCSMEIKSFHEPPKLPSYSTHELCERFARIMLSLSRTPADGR
Description: Inhibition of human USP25 (765 to 1055 residues) expressed in Escherichia coli Rosetta 2 (DE3) cells using Ub-Rh110Gly as fluorogenic substrate at 40 uM preincubated for 1 hr followed by substrate addition by plate reader analysis.

Series [3] concerns the target Ubiquitin carboxyl-terminal hydrolase 14 (Homo sapiens) (UniProt P54578). Description: Inhibition of human USP14 using Ub-Rh110Gly as fluorogenic substrate at 40 uM preincubated for 1 hr followed by substrate addition by plate reader analysis.
Series [4] has as its target Ubiquitin carboxyl-terminal hydrolase 7 (Homo sapiens) (UniProt Q93009). Put plainly: Inhibition of 6His-tagged human USP7 using Ub-Rh110Gly as fluorogenic substrate at 40 uM preincubated for 1 hr followed by substrate addition by plate reader analysis.
Series [5] deals with T2, OTU domain-containing protein 3 (Homo sapiens) (UniProt Q5T2D3).
T2 sequence (whole entry): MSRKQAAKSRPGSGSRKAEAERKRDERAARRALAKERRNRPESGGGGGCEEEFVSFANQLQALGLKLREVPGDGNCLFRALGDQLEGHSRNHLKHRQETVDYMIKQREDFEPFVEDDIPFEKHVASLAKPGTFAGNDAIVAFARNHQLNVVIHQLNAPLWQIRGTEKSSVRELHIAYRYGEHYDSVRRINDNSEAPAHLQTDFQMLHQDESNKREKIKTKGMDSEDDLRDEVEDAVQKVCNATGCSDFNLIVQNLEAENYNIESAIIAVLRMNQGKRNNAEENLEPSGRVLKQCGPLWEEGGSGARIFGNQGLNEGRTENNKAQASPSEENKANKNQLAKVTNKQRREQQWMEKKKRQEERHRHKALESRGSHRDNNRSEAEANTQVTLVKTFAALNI
Description: Inhibition of GST-tagged human OTUD3 using Ub-Rh110Gly as fluorogenic substrate at 40 uM preincubated for 1 hr followed by substrate addition by plate reader analysis.

For series [6], the system named is Chlamydia trachomatis. Description: Inhibition of C-terminal 6His-tagged Chlamydia trachomatis DUB1 (130 to 401 residues) expressed in Escherichia coli Rosetta 2 (DE3) cells using Ub-Rh110Gly as fluorogenic substrate at 40 uM preincubated for 1 hr followed by substrate addition by plate reader analysis.
Series [7] deals with Chlamydia trachomatis. Description: Anti-chlamydial activity against Chlamydia trachomatis serovar L2 infected in human HEp-2 cells assessed as fold change in inhibition of chlamydial inclusion incubated for 24 hrs by Alexa488/DAPI staining based immunofluorescence assay relative to doxycycline. Type of series: functional.
Series [8] concerns Chlamydia trachomatis. Description: Antimicrobial activity against Chlamydia trachomatis serovar L2 infected in human HeLa cells assessed as inclusion forming unit at 1.56 to 6.25 ug/ml measured after 24 hrs of post-infection by immunofluorescence based microscopic analysis. The series is classed as functional. As to conditions: dose 1.56-6.25 µg/ml.
In series [9] the test system is Chlamydia trachomatis. Description: Antimicrobial activity against Chlamydia trachomatis serovar L2 infected in human HeLa cells assessed as inclusion forming unit at 12.5 ug/ml measured at 24 to 48 hrs of post-infection by immunofluorescence based microscopic analysis. Type of series: functional. Particulars: dose 12.5 µg/ml; time 24-48 hrs.
Series [10] concerns Chlamydia trachomatis. Put plainly: Antimicrobial activity against Chlamydia trachomatis serovar L2 infected in human HeLa cells assessed as reduction in inclusion forming unit at 12.5 ug/ml measured after 8 hrs of post-infection by immunofluorescence based microscopic analysis. Type of series: functional, organism-based. As to conditions: dose 12.5 µg/ml.
For series [11], the system named is Chlamydia trachomatis. Description: Antimicrobial activity against Chlamydia trachomatis serovar L2 infected in human HeLa cells assessed as reduction in inclusion area at 12.5 ug/ml measured after 24 hrs of post-infection by microscopic analysis. Type of series: functional. As to conditions: dose 12.5 µg/ml.
Series [12] deals with Chlamydia trachomatis. Put plainly: Antimicrobial activity against Chlamydia trachomatis serovar L2 infected in human HeLa cells assessed as reduction in inclusion circumference at 6.25 ug/ml measured after 24 hrs of post-infection by microscopic analysis (reference value: 31.72 micrometer). Particulars: dose 6.25 µg/ml. Type of series: functional.
The subject of series [13] is Chlamydia trachomatis. Put plainly: Antimicrobial activity against Chlamydia trachomatis serovar L2 infected in human HeLa cells assessed as reduction in microbial progeny at 3.13 ug/ml measured after 24 hrs of post-infection by immunofluorescence analysis. The series is classed as functional. Also noted: scale not given: the % may be the effect or the level left. As to conditions: dose 3.13 µg/ml.

Series [14] has as its system Chlamydia trachomatis. Description: Antimicrobial activity against Chlamydia trachomatis serovar L2 infected in human HeLa cells assessed as reduction in microbial progeny at 6.25 ug/ml measured after 48 hrs of post-infection by immunofluorescence analysis. Type of series: functional. Also noted: scale not given: the % may be the effect or the level left. As to conditions: dose 6.25 µg/ml.

Series [15] has as its system Chlamydia trachomatis. Put plainly: Antimicrobial activity against Chlamydia trachomatis serovar L2 infected in human HeLa cells assessed as reduction in inclusion area at 1.56 ug/ml measured after 24 hrs of post-infection by microscopic analysis. As to conditions: dose 1.56 µg/ml. Type of series: functional.
Series [16] can be described thus: Solubility of compound in PBS incubated overnight by shake-flask based HPLC analysis. The series is classed as physicochemical.

≈ marks a conversion by molar mass, not a printed value. Calls of active or inactive are those of the source. The calls are words filed in the database; no cut-off is given here.

Ubiquitin carboxyl-terminal hydrolase 14 (Homo sapiens), sequence (P54578 whole entry): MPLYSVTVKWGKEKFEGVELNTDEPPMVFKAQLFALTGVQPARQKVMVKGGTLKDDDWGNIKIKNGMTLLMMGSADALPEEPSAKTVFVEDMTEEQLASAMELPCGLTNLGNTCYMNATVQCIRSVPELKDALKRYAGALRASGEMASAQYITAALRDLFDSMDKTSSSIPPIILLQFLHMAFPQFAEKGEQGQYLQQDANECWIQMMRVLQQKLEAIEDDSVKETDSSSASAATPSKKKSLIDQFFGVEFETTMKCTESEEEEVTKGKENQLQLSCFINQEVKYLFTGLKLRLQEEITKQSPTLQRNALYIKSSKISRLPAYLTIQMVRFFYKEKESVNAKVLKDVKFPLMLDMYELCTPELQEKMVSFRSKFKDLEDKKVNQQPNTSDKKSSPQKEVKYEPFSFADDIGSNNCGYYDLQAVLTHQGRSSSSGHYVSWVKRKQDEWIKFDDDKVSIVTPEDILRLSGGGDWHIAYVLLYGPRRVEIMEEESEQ
Ubiquitin carboxyl-terminal hydrolase 7 (Homo sapiens), sequence (Q93009 whole entry, looked up, the tested form may be a part): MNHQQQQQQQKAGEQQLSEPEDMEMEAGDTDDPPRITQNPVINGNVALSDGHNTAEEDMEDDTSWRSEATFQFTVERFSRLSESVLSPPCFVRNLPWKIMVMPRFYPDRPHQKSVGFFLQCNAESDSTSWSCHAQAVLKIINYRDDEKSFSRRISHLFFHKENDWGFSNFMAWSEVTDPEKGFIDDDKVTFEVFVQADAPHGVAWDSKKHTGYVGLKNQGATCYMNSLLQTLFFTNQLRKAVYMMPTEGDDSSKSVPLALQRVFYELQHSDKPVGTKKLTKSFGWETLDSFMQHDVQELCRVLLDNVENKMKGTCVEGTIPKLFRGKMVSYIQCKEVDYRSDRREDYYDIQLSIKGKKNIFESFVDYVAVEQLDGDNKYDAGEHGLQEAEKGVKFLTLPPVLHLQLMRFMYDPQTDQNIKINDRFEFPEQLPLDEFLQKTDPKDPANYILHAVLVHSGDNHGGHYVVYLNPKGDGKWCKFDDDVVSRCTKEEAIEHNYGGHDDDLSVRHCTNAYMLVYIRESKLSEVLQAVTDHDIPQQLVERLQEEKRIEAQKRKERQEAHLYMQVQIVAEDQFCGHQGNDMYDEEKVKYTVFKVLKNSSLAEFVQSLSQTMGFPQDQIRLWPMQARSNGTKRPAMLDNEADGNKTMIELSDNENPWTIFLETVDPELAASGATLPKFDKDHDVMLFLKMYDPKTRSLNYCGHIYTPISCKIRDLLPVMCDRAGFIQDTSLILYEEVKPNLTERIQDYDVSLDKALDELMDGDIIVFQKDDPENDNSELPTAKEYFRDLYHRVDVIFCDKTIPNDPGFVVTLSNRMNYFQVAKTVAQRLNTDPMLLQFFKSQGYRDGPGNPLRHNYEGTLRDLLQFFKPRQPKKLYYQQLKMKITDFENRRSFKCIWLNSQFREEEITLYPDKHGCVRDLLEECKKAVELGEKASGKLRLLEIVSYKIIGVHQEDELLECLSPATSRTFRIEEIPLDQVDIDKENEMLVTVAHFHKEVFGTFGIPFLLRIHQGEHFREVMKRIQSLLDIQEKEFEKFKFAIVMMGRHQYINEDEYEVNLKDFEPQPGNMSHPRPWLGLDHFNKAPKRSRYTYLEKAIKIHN

For the molecule `N#Cc1ncc(C(=O)NCc2ccc(C(=O)NC34CC5CC(CC(C5)C3)C4)cc2)cn1`, the IC50 (usually the concentration needed to halve the response being measured) in the series with Chlamydia trachomatis [1] was found to be 8.52 µg/mL (≈ 20.5 µM). The inhibition entry in series [2], in series [3], in series [4] and in series [5] was “inactive” each time. In addition, in the series on Chlamydia trachomatis [6], the inhibition result is “Active”. In the series with Chlamydia trachomatis [7], the “fold change (FC)” value is 200. For the same molecule, the Activity with Chlamydia trachomatis [8] is listed as 1.075 10^7IFU/ml; in the series on Chlamydia trachomatis [9], 3.7 10^6IFU/ml; with Chlamydia trachomatis [11], 15.38 um2; in the series on Chlamydia trachomatis [12], 25.98 um; in the series with Chlamydia trachomatis [13], 45.5%; with Chlamydia trachomatis [14], 41%. The Activity with Chlamydia trachomatis [15] came to 70.68 um2. Further, the result with Chlamydia trachomatis [10] was Active. The thermodynamic solubility (usually solubility found after equilibrating the solid with the medium) in [16] came out at 308 µM (≈ 128 µg/mL).
